Reference: publication PMC10895674, “First-in-Class Dual EZH2-HSP90 Inhibitor Eliciting Striking Antiglioblastoma Activity In Vitro and In Vivo” (Journal of Medicinal Chemistry, 2024)

What was measured:
EZH2 = EZH2 (Homo sapiens, UniProt Q15910); test: EZH2 inhibition assay (Reaction Biology Corp.); assay type: biochemical; details: 10-dose IC50 mode, 3-fold serial dilution starting at 10 μM, single experiment
Procedure: The EZH2 inhibitory ability of the synthesized adduct was assessed by Reaction Biology Corporation Malvern, PA. (http://www.reactionbiology.com).

Pt3R cells [1] = test: Itraq-based proteomics analysis of global protein expression; assay type: cell-based, human; details: 2 μM
Text: Having identified the desired chemical probe 7, we assessed global protein expression using Itraq-based proteomics analysis to estimate whether 7 suppresses HSP90 (Pt3R cell lines). […] This observation is aligned with the results attained with geldanamycin treatment (a well-known HSP90 inhibitor)[49],[50] and confirms the HSP90-suppressive activity of compound 7 in GBM cells.
RNA was isolated using the RNA extracting kit (Zymo Research, Irvine, CA) and subjected to RNA-seq serviced by BIOTOOLS Co., Ltd. (New Taipei City, Taiwan). Cell pellets were collected and subjected to proteomic analysis serviced by BIOTOOLS Co., Ltd. The comparison in gene expression between Pt3 and Pt3R was performed using RNA seq and described previously.[60]

[2] = test system: TMZ-resistant cells (Pt3R); test: Cell viability CCK8 assay; assay type: cell-based, human; details: Homo sapiens, 72 h, CCK8, read-out: IC50, cell growth inhibitory effects
Text: The CCK8 reagent was purchased from TargetMOI (Wellesley Hills, MA) and used according to the manufacturer’s instruction.

Pt3R cells [3] = test: Western blotting; assay type: cell-based, human
Procedure: Furthermore, the impact of compound 7 treatment on centromere proteins (CENPs) was assessed. As such, CENPs are the main constituent proteins of the kinetochore, which are essential for cell division. CENPs expression is elevated in GBM tissues and correlated with unfavorable overall survival in glioma patients.[53]
(§1) Thus, the ability of compound 7 to disturb redox homeostasis in TMZ-resistant cells and attain amplified therapeutic efficacy for GBM was evaluated. In both Pt3 and Pt3R cells, treatment with compound 7 for 48 h increased the ROS level (Figure 10A). […] Moreover, it was also observed that compound 7 increased mitochondria-derived ROS.
The detailed procedure was described in our previous study.[54],[55],[58],[59] Primary antibodies, anti-CENPA, anti-CENPE, anti-CENPF, and anti-CENPI antibodies, were purchased from abcam (Cambridge, U.K.); anti-CDK1 and anticyclin B1 antibodies were purchased from Santa Cruz Biotechnology, Inc. (Dallas, TX); and anti-EZH2 and anti-H3K27^me3 antibodies were purchased from GeneTex International Corporation (HsinChu, Taiwan), anti-Caspase-3 was purchased from GeneTex International Corporation; anti-cleaved Caspase-3 was purchased from Cell Signaling Technology (Danvers, Massachusetts).

mitochondria-derived ROS = test: MitoSOX assay; assay type: cell-based; details: Figure 10C
Procedure: as §1
Figure 10 Compound 7 triggers ROS production from mitochondria. (A) After treatment for 48 h, cells were stained with the DHR reagent, and the fluorescent signal was estimated by flow cytometry. Treatment concentration of compound 7 was indicated. (B) Protein lysates were subjected to Western blotting using the indicated antibody. (C) After staining with MitoSOX (red) and Hoechst 33342 (blue), cellular signals were photographed and quantified D. Protein lysates were subjected to Western blotting using the indicated antibody.
Dihydrorhodamine 123 (DHR; Thermo Fisher Scientific, Waltham, MA) was used to label cellular ROS detected by the flow cytometry,[54] and the MitoSOX reagent (Thermo Fisher Scientific) was used to label mitochondrial ROS.[55]

[4] = test system: blood–brain barrier (BBB); test: BBB permeability (chamber coated with endothelial cells and astrocytes, MTT of Pt#3-R in lower chamber); assay type: in vitro ADME; details: upper chamber, 72 h; 0, 1, 5, 10 (mM printed); viability of Pt#3-R in lower chamber by MTT
Procedure: Fig. S1 Compound 7 was added in the upper chamber coated with endothelial cells and astrocytes, and incubated
for 72 h. Subsequently, the viability of Pt#3-R in the lower chamber was analyzed by the MTT assay. As shown […]

Chain of EZH2 (Q15910 whole entry): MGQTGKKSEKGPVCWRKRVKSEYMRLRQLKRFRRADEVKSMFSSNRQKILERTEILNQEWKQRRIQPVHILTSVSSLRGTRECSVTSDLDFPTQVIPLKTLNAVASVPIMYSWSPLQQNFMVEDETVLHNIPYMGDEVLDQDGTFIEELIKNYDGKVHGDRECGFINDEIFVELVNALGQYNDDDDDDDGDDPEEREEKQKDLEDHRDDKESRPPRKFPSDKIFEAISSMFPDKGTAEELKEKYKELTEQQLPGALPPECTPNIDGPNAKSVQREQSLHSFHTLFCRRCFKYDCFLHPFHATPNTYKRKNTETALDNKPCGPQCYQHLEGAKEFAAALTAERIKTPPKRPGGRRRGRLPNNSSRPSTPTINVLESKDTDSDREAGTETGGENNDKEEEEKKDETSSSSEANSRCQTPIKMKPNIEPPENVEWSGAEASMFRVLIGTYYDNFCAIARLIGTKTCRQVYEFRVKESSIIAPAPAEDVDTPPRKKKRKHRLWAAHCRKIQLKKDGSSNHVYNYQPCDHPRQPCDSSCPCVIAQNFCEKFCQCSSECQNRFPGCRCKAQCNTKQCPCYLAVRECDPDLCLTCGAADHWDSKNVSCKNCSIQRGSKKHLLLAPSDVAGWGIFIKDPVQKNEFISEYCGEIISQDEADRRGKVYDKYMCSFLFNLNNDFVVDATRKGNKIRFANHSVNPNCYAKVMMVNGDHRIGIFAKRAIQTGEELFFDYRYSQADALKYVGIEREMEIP
Chain of EZH2 (O75530 whole entry partner): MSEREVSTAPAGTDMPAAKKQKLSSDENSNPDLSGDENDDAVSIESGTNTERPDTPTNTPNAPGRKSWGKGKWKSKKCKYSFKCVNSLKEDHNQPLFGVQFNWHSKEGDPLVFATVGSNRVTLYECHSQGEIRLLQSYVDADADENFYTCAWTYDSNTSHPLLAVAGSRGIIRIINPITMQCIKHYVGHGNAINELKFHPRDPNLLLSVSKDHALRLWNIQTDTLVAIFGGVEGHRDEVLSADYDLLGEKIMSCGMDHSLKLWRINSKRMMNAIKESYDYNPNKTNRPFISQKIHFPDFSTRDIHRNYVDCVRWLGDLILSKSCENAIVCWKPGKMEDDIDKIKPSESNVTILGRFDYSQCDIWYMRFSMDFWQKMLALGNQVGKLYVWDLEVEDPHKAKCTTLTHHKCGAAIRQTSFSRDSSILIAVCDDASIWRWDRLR
Chain of EZH2 (Q15022 whole entry partner): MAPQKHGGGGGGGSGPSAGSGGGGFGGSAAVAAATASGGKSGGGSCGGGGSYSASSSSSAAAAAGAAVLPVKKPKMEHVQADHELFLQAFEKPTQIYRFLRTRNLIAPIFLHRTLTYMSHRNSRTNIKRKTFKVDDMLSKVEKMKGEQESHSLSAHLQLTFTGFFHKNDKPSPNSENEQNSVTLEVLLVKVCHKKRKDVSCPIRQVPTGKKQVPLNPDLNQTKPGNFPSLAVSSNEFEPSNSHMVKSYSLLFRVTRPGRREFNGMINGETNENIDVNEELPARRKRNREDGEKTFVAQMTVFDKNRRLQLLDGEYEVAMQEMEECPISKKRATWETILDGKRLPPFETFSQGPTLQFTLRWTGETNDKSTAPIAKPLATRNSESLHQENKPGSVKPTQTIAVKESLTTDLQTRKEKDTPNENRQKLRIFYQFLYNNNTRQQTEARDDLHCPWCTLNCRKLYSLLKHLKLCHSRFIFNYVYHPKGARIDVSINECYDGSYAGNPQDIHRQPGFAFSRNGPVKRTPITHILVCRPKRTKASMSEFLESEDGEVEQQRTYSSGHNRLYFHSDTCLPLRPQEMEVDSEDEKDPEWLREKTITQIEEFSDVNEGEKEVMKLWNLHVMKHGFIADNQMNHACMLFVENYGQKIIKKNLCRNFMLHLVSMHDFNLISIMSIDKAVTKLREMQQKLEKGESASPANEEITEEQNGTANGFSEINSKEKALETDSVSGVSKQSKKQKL
Chain of EZH2 (Q09028 whole entry partner): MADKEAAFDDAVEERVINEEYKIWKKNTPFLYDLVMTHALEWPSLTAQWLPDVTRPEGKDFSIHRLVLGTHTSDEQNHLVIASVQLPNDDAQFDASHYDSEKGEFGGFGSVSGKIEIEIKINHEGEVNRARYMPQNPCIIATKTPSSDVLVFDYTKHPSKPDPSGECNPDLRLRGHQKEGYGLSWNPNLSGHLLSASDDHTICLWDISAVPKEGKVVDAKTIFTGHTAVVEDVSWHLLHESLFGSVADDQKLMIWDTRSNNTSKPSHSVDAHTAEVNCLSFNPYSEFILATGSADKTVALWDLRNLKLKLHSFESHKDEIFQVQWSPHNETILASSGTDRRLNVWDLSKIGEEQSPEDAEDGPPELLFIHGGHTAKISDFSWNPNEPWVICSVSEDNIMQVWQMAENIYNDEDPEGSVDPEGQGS
Chain of EZH2 (Q6ZN18 whole entry partner): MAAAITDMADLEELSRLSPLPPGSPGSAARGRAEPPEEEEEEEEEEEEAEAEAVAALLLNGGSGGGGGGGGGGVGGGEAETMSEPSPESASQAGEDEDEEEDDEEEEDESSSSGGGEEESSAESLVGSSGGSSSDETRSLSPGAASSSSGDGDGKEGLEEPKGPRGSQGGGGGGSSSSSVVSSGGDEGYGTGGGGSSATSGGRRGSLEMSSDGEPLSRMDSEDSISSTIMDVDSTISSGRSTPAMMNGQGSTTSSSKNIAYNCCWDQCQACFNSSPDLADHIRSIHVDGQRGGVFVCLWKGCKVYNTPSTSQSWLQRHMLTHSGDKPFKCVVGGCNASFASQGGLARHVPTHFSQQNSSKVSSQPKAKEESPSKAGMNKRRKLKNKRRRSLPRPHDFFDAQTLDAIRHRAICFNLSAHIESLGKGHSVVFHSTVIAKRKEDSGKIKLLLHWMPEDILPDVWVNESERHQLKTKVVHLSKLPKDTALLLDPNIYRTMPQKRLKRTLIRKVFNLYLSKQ

SMILES: CCN(c1cc(-c2cccc(N(C)C(=O)c3cc(C(C)C)c(O)cc3O)c2)cc(C(=O)NCc2c(C)cc(C)[nH]c2=O)c1C)C1CCOCC1 [Compound 7, 3′-(2,4-Dihydroxy-5-isopropyl-N-methylbenzamido)-N-((4,6-dimethyl-2-oxo-1,2-dihydropyridin-3-yl)methyl)-5-(ethyl(tetrahydro-2H-pyran-4-yl)amino)-4-methyl-[1,1′-biphenyl]-3-carboxamide]
- IC50 (EZH2): 6.29 nM
- C7/DMSO, ANXA5 (P08758) (Pt3R cells [1]; protein decreased): 0.406
- C7/DMSO, CORO1C (Q9ULV4) (Pt3R cells [1]; protein decreased): 0.410
- C7/DMSO, CYB5B (O43169) (Pt3R cells [1]; protein decreased): 0.568
- C7/DMSO, DDX6 (P26196) (Pt3R cells [1]; protein decreased): 0.596
- C7/DMSO, DDX39A (O00148) (Pt3R cells [1]; protein decreased): 0.515
- C7/DMSO, EIF3I (Q13347) (Pt3R cells [1]; protein decreased): 0.624
- C7/DMSO, GNB2 (P62879) (Pt3R cells [1]; protein decreased): 0.628
- C7/DMSO, H1–2 (P16403) (Pt3R cells [1]; protein decreased): 0.334
- C7/DMSO, H2AZ1 (P0C0S5) (Pt3R cells [1]; protein decreased): 0.603
- C7/DMSO, H2BC11 (P06899) (Pt3R cells [1]; protein decreased): 0.423
- C7/DMSO, H2BC12 (O60814) (Pt3R cells [1]; protein decreased): 0.419
- C7/DMSO, H4C1 (P62805) (Pt3R cells [1]; protein decreased): 0.556
- C7/DMSO, HADHB (P55084) (Pt3R cells [1]; protein decreased): 0.591
- C7/DMSO, HIST1H2AH (Q96KK5) (Pt3R cells [1]; protein decreased): 0.245
- C7/DMSO, HIST2H3A (Q71DI3) (Pt3R cells [1]; protein decreased): 0.240
- C7/DMSO, HMGB2 (P26583) (Pt3R cells [1]; protein decreased): 0.575
- C7/DMSO, HMGB3 (O15347) (Pt3R cells [1]; protein decreased): 0.573
- C7/DMSO, HNRNPA3 (P51991) (Pt3R cells [1]; protein decreased): 0.377
- C7/DMSO, ILF3 (Q12906) (Pt3R cells [1]; protein decreased): 0.645
- C7/DMSO, MCM3 (P25205) (Pt3R cells [1]; protein decreased): 0.635
- C7/DMSO, MCM7 (P33993) (Pt3R cells [1]; protein decreased): 0.586
- C7/DMSO, NASP (P49321) (Pt3R cells [1]; protein decreased): 0.604
- C7/DMSO, NT5E (P21589) (Pt3R cells [1]; protein decreased): 0.446
- C7/DMSO, PA2G4 (Q9UQ80) (Pt3R cells [1]; protein decreased): 0.628
- C7/DMSO, PCBP1 (Q15365) (Pt3R cells [1]; protein decreased): 0.628
- C7/DMSO, PTGES3 (Q15185) (Pt3R cells [1]; protein decreased): 0.589
- C7/DMSO, RACK1 (P63244) (Pt3R cells [1]; protein decreased): 0.627
- C7/DMSO, RPL26 (P61254) (Pt3R cells [1]; protein decreased): 0.619
- C7/DMSO, RPL35 (P42766) (Pt3R cells [1]; protein decreased): 0.629
- C7/DMSO, RPS6 (P62753) (Pt3R cells [1]; protein decreased): 0.641
- C7/DMSO, RPS10 (P46783) (Pt3R cells [1]; protein decreased): 0.608
- C7/DMSO, S100A13 (Q99584) (Pt3R cells [1]; protein decreased): 0.638
- C7/DMSO, SERPINB6 (P35237) (Pt3R cells [1]; protein decreased): 0.632
- C7/DMSO, SRSF7 (Q16629) (Pt3R cells [1]; protein decreased): 0.605
- C7/DMSO, TAF15 (Q92804) (Pt3R cells [1]; protein decreased): 0.609
- C7/DMSO, TNS3 (Q68CZ2) (Pt3R cells [1]; protein decreased): 0.582
- C7/DMSO, TUBB4B (P68371) (Pt3R cells [1]; protein decreased): 0.564
- C7/DMSO, TXNDC5 (Q8NBS9) (Pt3R cells [1]; protein decreased): 0.635
- C7/DMSO, YWHAG (P61981) (Pt3R cells [1]; protein decreased): 0.447
- C7/DMSO, ACTB (P60709) (Pt3R cells [1]; protein increased): 1.657
- C7/DMSO, ARF3 (P61204) (Pt3R cells [1]; protein increased): 1.944
- C7/DMSO, ATP5IF1 (Q9UII2) (Pt3R cells [1]; protein increased): 1.646
- C7/DMSO, ATP6 V1E1 (P36543) (Pt3R cells [1]; protein increased): 1.599
- C7/DMSO, CLIC1 (O00299) (Pt3R cells [1]; protein increased): 2.598
- C7/DMSO, CTNNB1 (P35222) (Pt3R cells [1]; protein increased): 1.550
- C7/DMSO, EEF1B2 (P24534) (Pt3R cells [1]; protein increased): 1.792
- C7/DMSO, EHD1 (Q9H4M9) (Pt3R cells [1]; protein increased): 1.555
- C7/DMSO, GIPC1 (O14908) (Pt3R cells [1]; protein increased): 1.699
- C7/DMSO, HK1 (P19367) (Pt3R cells [1]; protein increased): 1.921
- C7/DMSO, HSP90AA1 (P07900) (Pt3R cells [1]; protein increased): 1.958
- C7/DMSO, HSPA1A (P0DMV8) (Pt3R cells [1]; protein increased): 2.843
- C7/DMSO, HSPA4 (P34932) (Pt3R cells [1]; protein increased): 1.561
- C7/DMSO, HSPA8 (P11142) (Pt3R cells [1]; protein increased): 2.096
- C7/DMSO, HSPB1 (P04792) (Pt3R cells [1]; protein increased): 1.661
- C7/DMSO, HSPE1 (P61604) (Pt3R cells [1]; protein increased): 1.710
- C7/DMSO, HSPH1 (Q92598) (Pt3R cells [1]; protein increased): 1.642
- C7/DMSO, LRPAP1 (P30533) (Pt3R cells [1]; protein increased): 1.667
- C7/DMSO, NME1 (P15531) (Pt3R cells [1]; protein increased): 3.299
- C7/DMSO, OCIAD2 (Q56VL3) (Pt3R cells [1]; protein increased): 2.150
- C7/DMSO, OLA1 (Q9NTK5) (Pt3R cells [1]; protein increased): 1.745
- C7/DMSO, P4HA2 (O15460) (Pt3R cells [1]; protein increased): 1.588
- C7/DMSO, PSMD3 (O43242) (Pt3R cells [1]; protein increased): 1.801
- C7/DMSO, PSMD14 (O00487) (Pt3R cells [1]; protein increased): 1.579
- C7/DMSO, S100A10 (P60903) (Pt3R cells [1]; protein increased): 1.664
- C7/DMSO, SERPINE1 (P05121) (Pt3R cells [1]; protein increased): 4.203
- C7/DMSO, SERPINH1 (P50454) (Pt3R cells [1]; protein increased): 2.186
- C7/DMSO, TWF1 (Q12792) (Pt3R cells [1]; protein increased): 1.995
- C7/DMSO, ZYX (Q15942) (Pt3R cells [1]; protein increased): 1.903
- IC50 [2]: 1010 ± 690 nM
- EZH2 expression and EZH2-modulated H3K27 trimethylation (Pt3R cells [3]; Figure 10B): inhibited
- proteins involved in cleaning ROS (catalase, SOD1, glutathione reductase, GPX1) (Pt3R cells [3]; Figure 10B): decreased
- expression of cleaved caspase-3 (Pt3R cells [3]; Figure 10D): upregulate
- CENPs protein expression (Pt3R cells [3]; Pt3R (Figure 8D)): decreased
- expression of CDK1 and cyclin B1 (Pt3R cells [3]; Pt3R (Figure 8D)): downregulated
- MitoSOX red signal representing ROS produced from mitochondria (mitochondria-derived ROS): remarkably enhanced
- BBB penetration [4]: able to penetrate blood–brain barrier (BBB)
